# ChEMBL document CHEMBL4507297, “Data for DCP probe PF-04457845” (2021)
# Legend:
# [1] = test system: Tyrosine-protein kinase ABL1 (Homo sapiens), P00519 [F317I]; conditions: Compound concentration 1000.0 nM
# [2] = test system: Tyrosine-protein kinase ABL1 (Homo sapiens), P00519 [F317L]; conditions: Compound concentration 1000.0 nM
# [3] = test system: Tyrosine-protein kinase ABL1 (Homo sapiens), P00519 [Y253F]; conditions: Compound concentration 1000.0 nM
# [4] = target: Tyrosine-protein kinase ABL2 (Homo sapiens) (UniProt P42684); conditions: Compound concentration 1000.0 nM
# [5] = target: Activin receptor type-1-like (Homo sapiens) (UniProt P37023); conditions: Compound concentration 1000.0 nM
# [6] = target: RAC-beta serine/threonine-protein kinase (Homo sapiens) (UniProt P31751); conditions: Compound concentration 1000.0 nM
# [7] = target: Ankyrin repeat and protein kinase domain-containing protein 1 (Homo sapiens) (UniProt Q8NFD2); conditions: Compound concentration 1000.0 nM
# [8] = target: Serine/threonine-protein kinase BRSK1 (Homo sapiens) (UniProt Q8TDC3); conditions: Compound concentration 1000.0 nM
# [9] = target: Calcium/calmodulin-dependent protein kinase type 1G (Homo sapiens) (UniProt Q96NX5); conditions: Compound concentration 1000.0 nM
# [10] = target: Calcium/calmodulin-dependent protein kinase kinase 1 (Homo sapiens) (UniProt Q8N5S9); conditions: Compound concentration 1000.0 nM
# [11] = target: Macrophage colony-stimulating factor 1 receptor (Homo sapiens) (UniProt P07333); conditions: Compound concentration 1000.0 nM
# [12] = target: Dual specificity tyrosine-phosphorylation-regulated kinase 1A (Homo sapiens) (UniProt Q13627); conditions: Compound concentration 1000.0 nM
# [13] = target: Eukaryotic translation initiation factor 2-alpha kinase 1 (Homo sapiens) (UniProt Q9BQI3); conditions: Compound concentration 1000.0 nM
# [14] = target: Ephrin type-A receptor 7 (Homo sapiens) (UniProt Q15375); conditions: Compound concentration 1000.0 nM
# [15] = target: Ephrin type-B receptor 2 (Homo sapiens) (UniProt P29323); conditions: Compound concentration 1000.0 nM
# [16] = target: Receptor tyrosine-protein kinase erbB-3 (Homo sapiens) (UniProt P21860); conditions: Compound concentration 1000.0 nM
# [17] = test system: Receptor-type tyrosine-protein kinase FLT3 (Homo sapiens), P36888 [K663Q]; conditions: Compound concentration 1000.0 nM
# [18] = target: Inhibitor of nuclear factor kappa-B kinase subunit beta (Homo sapiens) (UniProt O14920); conditions: Compound concentration 1000.0 nM
# [19] = target: Serine/threonine-protein kinase LATS1 (Homo sapiens) (UniProt O95835); conditions: Compound concentration 1000.0 nM
# [20] = target: Leucine-rich repeat serine/threonine-protein kinase 2 (Homo sapiens) (UniProt Q5S007); conditions: Compound concentration 1000.0 nM
# [21] = target: Mitogen-activated protein kinase kinase kinase kinase 2 (Homo sapiens) (UniProt Q12851); conditions: Compound concentration 1000.0 nM
# [22] = target: MAP kinase-activated protein kinase 2 (Homo sapiens) (UniProt P49137); conditions: Compound concentration 1000.0 nM
# [23] = target: Microtubule-associated serine/threonine-protein kinase 1 (Homo sapiens) (UniProt Q9Y2H9); conditions: Compound concentration 1000.0 nM
# [24] = target: Myosin light chain kinase 2, skeletal/cardiac muscle (Homo sapiens) (UniProt Q9H1R3); conditions: Compound concentration 1000.0 nM
# [25] = target: Serine/threonine-protein kinase Nek6 (Homo sapiens) (UniProt Q9HC98); conditions: Compound concentration 1000.0 nM
# [26] = target: Serine/threonine-protein kinase OSR1 (Homo sapiens) (UniProt O95747); conditions: Compound concentration 1000.0 nM
# [27] = target: Cyclin-dependent kinase 16 (Homo sapiens) (UniProt Q00536); conditions: Compound concentration 1000.0 nM
# [28] = target: Phosphatidylinositol 4,5-bisphosphate 3-kinase catalytic subunit alpha isoform (Homo sapiens) (UniProt P42336); conditions: Compound concentration 1000.0 nM
# [29] = target: Phosphatidylinositol 4,5-bisphosphate 3-kinase catalytic subunit delta isoform (Homo sapiens) (UniProt O00329); conditions: Compound concentration 1000.0 nM
# [30] = target: cAMP-dependent protein kinase catalytic subunit alpha (Homo sapiens) (UniProt P17612); conditions: Compound concentration 1000.0 nM
# [31] = target: Serine/threonine-protein kinase PknB (Mycobacterium tuberculosis) (UniProt P9WI81); conditions: Compound concentration 1000.0 nM
# [32] = target: cGMP-dependent protein kinase 1 (Homo sapiens) (UniProt Q13976); conditions: Compound concentration 1000.0 nM
# [33] = target: RAF proto-oncogene serine/threonine-protein kinase (Homo sapiens) (UniProt P04049); conditions: Compound concentration 1000.0 nM
# [34] = test system: Proto-oncogene tyrosine-protein kinase receptor Ret (Homo sapiens), P07949 [V804M]; conditions: Compound concentration 1000.0 nM
# [35] = target: Rho-associated protein kinase 1 (Homo sapiens) (UniProt Q13464); conditions: Compound concentration 1000.0 nM
# [36] = target: Serine/threonine-protein kinase tousled-like 1 (Homo sapiens) (UniProt Q9UKI8); conditions: Compound concentration 1000.0 nM
# [37] = target: Transient receptor potential cation channel subfamily M member 6 (Homo sapiens) (UniProt Q9BX84); conditions: Compound concentration 1000.0 nM
# [38] = target: Dual specificity protein kinase TTK (Homo sapiens) (UniProt P33981); conditions: Compound concentration 1000.0 nM
# [39] = target: Tyrosine-protein kinase TXK (Homo sapiens) (UniProt P42681); conditions: Compound concentration 1000.0 nM
# [40] = target: Serine/threonine-protein kinase WNK4 (Homo sapiens) (UniProt Q96J92); conditions: Compound concentration 1000.0 nM
# [41] = target: Serine/threonine-protein kinase 25 (Homo sapiens) (UniProt O00506); conditions: Compound concentration 1000.0 nM
# [42] = target: 5-hydroxytryptamine receptor 2B (Homo sapiens, UniProt P41595); conditions: Compound concentration 10.0 uM
# [43] = target: Sodium-dependent serotonin transporter (Homo sapiens) (UniProt P31645); conditions: Compound concentration 10.0 uM
# [44] = target: Muscarinic acetylcholine receptor M4 (Homo sapiens) (UniProt P08173); conditions: Compound concentration 10.0 uM
# Sequence of Muscarinic acetylcholine receptor M4 (Homo sapiens) (P08173 whole entry): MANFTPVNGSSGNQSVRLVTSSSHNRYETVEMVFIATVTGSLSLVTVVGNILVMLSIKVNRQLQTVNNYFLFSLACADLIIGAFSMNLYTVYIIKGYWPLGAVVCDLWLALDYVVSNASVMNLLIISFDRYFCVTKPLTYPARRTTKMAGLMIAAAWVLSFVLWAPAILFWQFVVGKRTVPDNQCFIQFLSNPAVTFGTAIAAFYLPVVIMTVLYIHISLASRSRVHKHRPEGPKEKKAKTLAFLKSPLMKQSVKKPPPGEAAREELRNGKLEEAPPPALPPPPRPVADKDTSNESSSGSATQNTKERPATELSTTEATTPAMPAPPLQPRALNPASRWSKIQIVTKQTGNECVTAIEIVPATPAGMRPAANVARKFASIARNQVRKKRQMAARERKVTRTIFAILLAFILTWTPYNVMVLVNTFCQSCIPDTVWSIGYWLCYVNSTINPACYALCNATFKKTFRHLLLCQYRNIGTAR
# Sequence of Dual specificity protein kinase TTK (Homo sapiens) (P33981 whole entry): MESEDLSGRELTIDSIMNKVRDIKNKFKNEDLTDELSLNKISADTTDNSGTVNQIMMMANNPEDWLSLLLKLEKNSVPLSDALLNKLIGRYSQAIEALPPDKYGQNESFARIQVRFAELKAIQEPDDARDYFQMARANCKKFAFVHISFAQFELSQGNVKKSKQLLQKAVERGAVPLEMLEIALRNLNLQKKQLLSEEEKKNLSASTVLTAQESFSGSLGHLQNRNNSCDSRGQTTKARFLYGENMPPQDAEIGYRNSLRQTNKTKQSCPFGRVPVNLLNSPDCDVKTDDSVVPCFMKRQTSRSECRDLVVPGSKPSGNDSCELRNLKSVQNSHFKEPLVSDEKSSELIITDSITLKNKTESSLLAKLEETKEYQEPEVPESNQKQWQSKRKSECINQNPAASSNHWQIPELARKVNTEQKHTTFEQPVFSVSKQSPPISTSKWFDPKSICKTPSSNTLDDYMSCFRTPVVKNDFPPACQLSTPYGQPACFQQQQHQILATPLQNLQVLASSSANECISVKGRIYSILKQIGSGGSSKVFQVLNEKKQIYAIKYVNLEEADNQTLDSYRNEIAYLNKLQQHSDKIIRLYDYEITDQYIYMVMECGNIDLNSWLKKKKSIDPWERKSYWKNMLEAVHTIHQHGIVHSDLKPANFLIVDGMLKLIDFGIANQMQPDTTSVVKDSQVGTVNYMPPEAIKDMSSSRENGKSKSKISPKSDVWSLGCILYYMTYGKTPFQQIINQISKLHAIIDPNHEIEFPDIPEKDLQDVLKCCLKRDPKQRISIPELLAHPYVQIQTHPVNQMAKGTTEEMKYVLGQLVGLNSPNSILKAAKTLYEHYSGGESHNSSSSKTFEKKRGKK
# Sequence of Phosphatidylinositol 4,5-bisphosphate 3-kinase catalytic subunit delta isoform (Homo sapiens) (O00329 whole entry, canonical isoform): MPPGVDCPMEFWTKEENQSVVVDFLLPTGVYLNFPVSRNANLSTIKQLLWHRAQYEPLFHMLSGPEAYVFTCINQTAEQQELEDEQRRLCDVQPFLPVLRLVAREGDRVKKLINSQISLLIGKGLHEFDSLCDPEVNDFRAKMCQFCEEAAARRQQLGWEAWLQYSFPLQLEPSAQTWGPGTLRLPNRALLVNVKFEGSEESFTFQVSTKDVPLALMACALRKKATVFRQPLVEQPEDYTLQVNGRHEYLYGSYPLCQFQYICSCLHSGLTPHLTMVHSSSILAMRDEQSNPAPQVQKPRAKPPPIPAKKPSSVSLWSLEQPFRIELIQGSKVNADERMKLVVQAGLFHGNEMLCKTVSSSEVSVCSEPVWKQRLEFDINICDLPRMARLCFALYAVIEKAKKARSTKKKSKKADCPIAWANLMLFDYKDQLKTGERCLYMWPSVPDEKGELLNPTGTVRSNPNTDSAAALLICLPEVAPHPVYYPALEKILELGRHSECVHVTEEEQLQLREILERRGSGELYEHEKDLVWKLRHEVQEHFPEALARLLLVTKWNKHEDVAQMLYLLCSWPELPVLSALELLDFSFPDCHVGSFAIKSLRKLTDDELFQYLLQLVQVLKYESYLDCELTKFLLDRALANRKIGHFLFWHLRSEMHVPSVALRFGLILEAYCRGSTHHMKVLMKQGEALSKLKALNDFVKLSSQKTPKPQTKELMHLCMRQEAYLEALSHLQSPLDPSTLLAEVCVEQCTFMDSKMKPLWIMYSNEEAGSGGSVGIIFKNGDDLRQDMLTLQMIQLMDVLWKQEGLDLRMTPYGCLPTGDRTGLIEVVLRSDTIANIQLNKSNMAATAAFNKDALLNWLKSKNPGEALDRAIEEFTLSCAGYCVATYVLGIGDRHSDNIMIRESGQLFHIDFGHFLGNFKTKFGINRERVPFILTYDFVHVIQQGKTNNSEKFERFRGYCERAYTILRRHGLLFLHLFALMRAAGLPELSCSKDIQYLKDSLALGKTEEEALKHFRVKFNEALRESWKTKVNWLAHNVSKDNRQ
# Sequence of RAF proto-oncogene serine/threonine-protein kinase (Homo sapiens) (P04049 whole entry): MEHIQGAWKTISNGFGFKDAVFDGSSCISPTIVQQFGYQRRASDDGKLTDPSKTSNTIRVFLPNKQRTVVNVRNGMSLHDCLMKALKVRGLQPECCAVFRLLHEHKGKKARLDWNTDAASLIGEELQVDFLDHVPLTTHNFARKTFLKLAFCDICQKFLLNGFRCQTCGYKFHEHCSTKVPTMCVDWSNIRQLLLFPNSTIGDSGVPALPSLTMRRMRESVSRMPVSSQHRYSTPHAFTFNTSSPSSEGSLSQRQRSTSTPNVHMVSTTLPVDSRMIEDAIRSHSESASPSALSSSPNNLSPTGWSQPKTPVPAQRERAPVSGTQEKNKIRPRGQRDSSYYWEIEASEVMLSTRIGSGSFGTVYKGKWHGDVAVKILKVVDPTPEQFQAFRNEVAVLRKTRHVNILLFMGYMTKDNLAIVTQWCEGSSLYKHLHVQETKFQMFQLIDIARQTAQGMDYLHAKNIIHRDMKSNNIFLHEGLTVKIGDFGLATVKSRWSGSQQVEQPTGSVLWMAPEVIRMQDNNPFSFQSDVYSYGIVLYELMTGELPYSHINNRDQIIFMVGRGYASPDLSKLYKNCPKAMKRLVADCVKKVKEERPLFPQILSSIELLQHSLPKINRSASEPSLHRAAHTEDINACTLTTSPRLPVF
# Sequence of Transient receptor potential cation channel subfamily M member 6 (Homo sapiens) (Q9BX84 whole entry): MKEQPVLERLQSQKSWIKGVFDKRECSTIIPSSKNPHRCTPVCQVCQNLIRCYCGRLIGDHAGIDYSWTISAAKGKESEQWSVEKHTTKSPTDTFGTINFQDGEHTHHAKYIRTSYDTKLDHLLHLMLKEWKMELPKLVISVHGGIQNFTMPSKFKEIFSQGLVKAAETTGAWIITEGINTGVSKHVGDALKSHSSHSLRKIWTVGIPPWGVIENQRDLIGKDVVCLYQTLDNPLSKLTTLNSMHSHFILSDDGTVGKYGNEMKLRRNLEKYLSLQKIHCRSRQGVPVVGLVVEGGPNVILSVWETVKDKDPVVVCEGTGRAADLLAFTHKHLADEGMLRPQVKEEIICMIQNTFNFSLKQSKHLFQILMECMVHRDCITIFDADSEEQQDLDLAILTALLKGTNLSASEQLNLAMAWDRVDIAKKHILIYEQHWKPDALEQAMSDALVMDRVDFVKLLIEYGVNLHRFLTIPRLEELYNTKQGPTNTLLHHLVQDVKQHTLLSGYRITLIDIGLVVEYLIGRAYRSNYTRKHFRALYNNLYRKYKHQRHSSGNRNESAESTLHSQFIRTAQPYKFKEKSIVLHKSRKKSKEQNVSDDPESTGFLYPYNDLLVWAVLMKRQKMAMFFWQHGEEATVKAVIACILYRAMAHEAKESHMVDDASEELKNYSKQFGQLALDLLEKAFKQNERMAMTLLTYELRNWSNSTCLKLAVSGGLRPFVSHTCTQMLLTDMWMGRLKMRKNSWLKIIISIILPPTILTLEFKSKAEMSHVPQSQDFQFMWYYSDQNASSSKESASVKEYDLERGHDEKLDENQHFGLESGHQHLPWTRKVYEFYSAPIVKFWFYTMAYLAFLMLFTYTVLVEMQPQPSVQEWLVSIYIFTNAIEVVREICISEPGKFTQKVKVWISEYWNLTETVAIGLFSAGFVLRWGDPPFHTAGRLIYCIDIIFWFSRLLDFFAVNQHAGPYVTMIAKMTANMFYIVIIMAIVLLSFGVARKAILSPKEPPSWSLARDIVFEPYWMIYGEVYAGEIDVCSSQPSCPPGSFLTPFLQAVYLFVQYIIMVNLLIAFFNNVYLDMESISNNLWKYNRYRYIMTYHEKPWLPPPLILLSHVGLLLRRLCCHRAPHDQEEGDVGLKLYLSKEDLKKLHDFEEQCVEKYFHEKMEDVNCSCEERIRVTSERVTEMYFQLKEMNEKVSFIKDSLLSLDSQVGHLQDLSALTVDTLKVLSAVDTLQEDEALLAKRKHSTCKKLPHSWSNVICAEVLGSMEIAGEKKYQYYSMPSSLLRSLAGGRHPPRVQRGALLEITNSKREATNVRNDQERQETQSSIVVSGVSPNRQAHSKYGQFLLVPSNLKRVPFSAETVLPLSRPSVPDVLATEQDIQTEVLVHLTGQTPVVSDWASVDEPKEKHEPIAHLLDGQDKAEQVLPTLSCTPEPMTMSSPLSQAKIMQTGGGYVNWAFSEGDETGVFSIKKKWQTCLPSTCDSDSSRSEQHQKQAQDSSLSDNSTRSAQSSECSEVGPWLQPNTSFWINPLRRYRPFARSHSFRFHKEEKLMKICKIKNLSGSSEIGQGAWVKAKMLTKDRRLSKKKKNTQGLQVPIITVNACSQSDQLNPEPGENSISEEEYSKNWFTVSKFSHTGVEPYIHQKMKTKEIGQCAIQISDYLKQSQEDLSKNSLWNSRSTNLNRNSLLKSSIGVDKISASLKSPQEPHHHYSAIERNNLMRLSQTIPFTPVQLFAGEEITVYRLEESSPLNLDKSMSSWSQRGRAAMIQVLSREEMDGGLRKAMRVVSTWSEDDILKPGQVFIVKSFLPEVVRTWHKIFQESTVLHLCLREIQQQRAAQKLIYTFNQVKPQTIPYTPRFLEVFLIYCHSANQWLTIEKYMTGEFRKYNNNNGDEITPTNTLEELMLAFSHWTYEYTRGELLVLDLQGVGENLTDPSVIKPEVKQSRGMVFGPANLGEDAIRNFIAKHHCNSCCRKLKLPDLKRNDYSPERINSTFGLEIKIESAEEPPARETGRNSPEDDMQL
structure (smiles),measurement,setting,value
O=C(Nc1cccnn1)N1CC(C/C=C/c2cncc(Oc3ccc(C(F)(F)F)cn3)n2)C1,residual activity,[1],67%
same,residual activity,[2],67%
same,residual activity,[3],92%
same,residual activity,[4],100%
same,residual activity,[5],100%
same,residual activity,[6],100%
same,residual activity,[7],73%
same,residual activity,[8],100%
same,residual activity,[9],100%
same,residual activity,[10],100%
same,residual activity,[11],87%
same,residual activity,[12],75%
same,residual activity,[13],100%
same,residual activity,[14],100%
same,residual activity,[15],100%
same,residual activity,[16],99%
same,residual activity,[17],100%
same,residual activity,[18],94%
same,residual activity,[19],91%
same,residual activity,[20],90%
same,residual activity,[21],80%
same,residual activity,[22],100%
same,residual activity,[23],58%
same,residual activity,[24],87%
same,residual activity,[25],100%
same,residual activity,[26],71%
same,residual activity,[27],81%
same,residual activity,[28],100%
same,residual activity,[29],64%
same,residual activity,[30],93%
same,residual activity,[31],87%
same,residual activity,[32],100%
same,residual activity,[33],100%
same,residual activity,[34],100%
same,residual activity,[35],82%
same,residual activity,[36],98%
same,residual activity,[37],73%
same,residual activity,[38],100%
same,residual activity,[39],100%
same,residual activity,[40],0%
same,residual activity,[41],91%
same,inhibition,[42],2.28%
same,inhibition,[43],32.7%
same,inhibition,[44],-7.53%
O=C(Nc1cccnn1)N1CCC(=Cc2cccc(Oc3ccc(C(F)(F)F)cn3)c2)CC1,residual activity,[1],100%
same,residual activity,[2],94%
same,residual activity,[3],100%
same,residual activity,[4],99%
same,residual activity,[5],77%
same,residual activity,[6],81%
same,residual activity,[7],96%
same,residual activity,[8],73%
same,residual activity,[9],95%
same,residual activity,[10],92%
same,residual activity,[11],100%
same,residual activity,[12],100%
same,residual activity,[13],100%
same,residual activity,[14],95%
same,residual activity,[15],100%
same,residual activity,[16],84%
same,residual activity,[17],100%
same,residual activity,[18],83%
same,residual activity,[19],100%
same,residual activity,[20],99%
same,residual activity,[21],100%
same,residual activity,[22],87%
same,residual activity,[23],100%
same,residual activity,[24],88%
same,residual activity,[25],100%
same,residual activity,[26],100%
same,residual activity,[27],100%
same,residual activity,[28],100%
same,residual activity,[29],81%
same,residual activity,[30],100%
same,residual activity,[31],95%
same,residual activity,[32],100%
same,residual activity,[33],63%
same,residual activity,[34],100%
same,residual activity,[35],100%
same,residual activity,[36],100%
same,residual activity,[37],98%
same,residual activity,[38],100%
same,residual activity,[39],100%
same,residual activity,[40],96%
same,residual activity,[41],100%
same,inhibition,[42],55.7%
same,inhibition,[43],20.2%
same,inhibition,[44],7.38%
